Measured values published in patent publication US8093286B2, “Methods for treatment with bucindolol based on genetic targeting” (The Regents of the University of Colorado, a body corporate, priority 2004, dated 2012).
Entries after “also recorded” stand apart in the source; their conditions may differ. Counter-ions that a name gives are not always drawn.

What was measured:
[1] = target: T1, β1-Gly389 receptor (Homo sapiens, UniProt P08588); test: norepinephrine-stimulated cAMP accumulation in stably transfected CHW cells (functional antagonism); type: cell-based
T1 construct: expressed in transfected cells
T1 sequence (P08588 whole entry): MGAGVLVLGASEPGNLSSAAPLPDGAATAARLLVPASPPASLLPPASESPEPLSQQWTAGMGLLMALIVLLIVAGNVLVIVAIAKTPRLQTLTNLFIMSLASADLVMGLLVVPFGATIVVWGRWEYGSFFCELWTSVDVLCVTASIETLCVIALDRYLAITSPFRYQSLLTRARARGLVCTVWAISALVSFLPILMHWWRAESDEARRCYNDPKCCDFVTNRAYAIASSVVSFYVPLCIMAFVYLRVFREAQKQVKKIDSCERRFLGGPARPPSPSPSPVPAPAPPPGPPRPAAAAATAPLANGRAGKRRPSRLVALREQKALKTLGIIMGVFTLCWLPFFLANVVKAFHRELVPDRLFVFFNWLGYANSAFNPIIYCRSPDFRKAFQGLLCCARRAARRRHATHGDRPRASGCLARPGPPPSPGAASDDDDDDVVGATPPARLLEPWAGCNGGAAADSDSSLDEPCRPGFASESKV
Description: (§1) Chinese hamster fibroblasts (CHW cells) were stably transfected with the human Arg389 and Gly389 cDNAs as previously described (Mason et al., 1999). Lines with equivalent levels of expression as determined by radioligand binding were studied to ascertain the antagonist effect of bucindolol on norepinephrine stimulated cAMP accumulation. Cells in monolayers were treated with 10 μM norepinephrine in the absence and presence of various concentrations of bucindolol for 20 min at 37° C. and [^3H]cAMP isolated by column chromatography (Salomon, 1991).
(§2) Chinese hamster fibroblasts were stably transfected using constructs previously described so as to separately express the human β1-Arg389 or β1-Gly389 receptors. β1AR expression, and affinity for bucindolol, were determined by radioligand binding studies with ^125I-cyanopindolol (125I-CYP), using 1 μM propranolol to define nonspecific binding as described. Whole cell cAMP accumulation studies were carried out by the [^3H]-adenine method using two lines with equivalent expression levels of the two receptors as indicated. Attached cells were exposed to vehicle (basal), 10 μM norepinephrine or 10 uM norepinephrine with the indicated concentrations of bucindolol for 15 min at 37° C.

[2] = target: T2, β1-Arg389 receptor (Homo sapiens, UniProt P08588, G389R); test: as above; type: cell-based
T2 construct: expressed in transfected cells
T2 sequence (P08588 whole entry G389R): as the sequence (P08588 whole entry) above, with G389R counted along it
Description: as §1, §2

[3] = BEST trial, peripheral venous norepinephrine and haemodynamic changes; type: in vivo, human
Description: (§3) Because of an initial delay in setting up the procedures, collection of blood samples for norepinephrine in all randomized patients began 6 months after trial initiation.
(§4) Peripheral venous NE samples were drawn at baseline, 3 and 12 months by inserting a 21 gauge butterfly needle into an arm vein and placing the subject in a quiet room in a supine position for 30 minutes. The initial 3 ml of blood was discarded, and then 5 ml of blood was withdrawn and immediately transferred to pre-chilled 5 ml tubes containing EDTA. Within 30 min plasma was separated and frozen at −70° C. Sites shipped samples on dry ice to a central laboratory (LabCorp, Raritan, N.J.) every 3 mo, where the samples were stored at −85° C. and assayed within 3 weeks. NE was measured by HPLC-electrochemical detection using the Bio-Rad HPLC method (Bio-Rad Laboratories Hercules, Calif.). Quality control included re-measuring all samples with initial values of <200 pg/ml or >2000 pg/ml, from the 2nd stored tube; and routinely (every 20 samples) measuring known amounts.
(§5) Means and standard deviations (SD) for continuous data, and proportions or percentages for categorical data are presented. T-tests or Wilcoxon rank sum tests were used for continuous data, and chi-square or Fisher's exact test for categorical data. An alpha level of 0.05 (2 tailed, unadjusted) was used to indicate statistical significance.

[4] = tested on: systemic venous norepinephrine; test: as above; type: in vivo, human; conditions: for NE change @ 3 mos, mean ± SD: Bucindolol Inter subgroup (Δ NE −244.5, ≦ +145), hydrochloride
Description: as §3, §4, §5

[5] = tested on: failing human right ventricular trabeculae; test: contractile response of isolated right ventricular trabeculae from failing human hearts; conditions: hydrochloride
Description: Nonfailing hearts were obtained from local potential organ donors whose hearts were not transplanted because of physical or ABO blood type incompatibility. Failing hearts were from patients with end-stage heart failure due to ischemic or non-ischemic dilated cardiomyopathies who underwent cardiac transplantation. The demographic characteristics of the hearts are provided in Results. The contractile response of isolated, field stimulated, human trabeculae was assessed as previously described {1755; a-c}. Trabeculae of uniform size (1 to 2×6 to 8 mm) were mounted in 80 ml muscle bath chambers in Tyrode's solution at pH 7.45 bubbled with 95% O2-5% CO2 at 36^0. After equilibration, a tension of 75% of Lmax was applied to each individual trabeculum. Field-stimulation by a 5-ms pulse at 10% above threshold was then applied, and after equilibration full dose-response curves to isoproterenol, bucindolol or xamoterol were performed using the indicated concentrations and application of increasing doses every 5 minutes. In experiments in which forskolin was used to enhance signal transduction {e,f}, 10^−6 M of this adenylyl cyclase activator was applied to the tissue baths 15-20 minutes prior to the performance of dose-response curves, and allowed to achieve stability of tension response. Systolic tension at each dose was calculated as the stimulated tension in mN/mm^2 minus baseline tension. The maximum tension, concentration of isoproterenol that produced 50% of the maximum developed tension (EC50) and curve slope were computed by nonlinear repeated measures analysis of covariance. […] Statistical methods were employed as described in Examples 3 and 4.

[6] = tested on: patients with Class III/IV heart failure; conditions: cited from earlier work
[7] = bucindolol alone up to 10 μM, hydrochloride

CC(C)(Cc1c[nH]c2ccccc12)NCC(O)COc1ccccc1C#N (stereo not drawn) [bucindolol, (2-{2-hydroxy-3{{2-(3-indolyl)-1,1-dimethylethyl}amino}propoxy}-benzonitrile hydrochloride)]
maximal decrease of cAMP ([1]; 10 μM norepinephrine + bucindolol, Gly389 cells, N=4): 115 ± 23 fmol/mL
stimulation of cAMP by bucindolol alone (intrinsic sympathomimetic activity) [1, 7]: no stimulation of cAMP; also recorded: no evidence for intrinsic sympathomimetic activity
inhibition at 0.1 µM ([2]; 0.1 μM bucindolol, read-out: inhibition of the Arg389 cAMP response): ~80%
maximal decrease of cAMP ([2]; 10 μM norepinephrine + bucindolol, Arg389 cells, N=4): 435 ± 80 fmol/mL
stimulation of cAMP by bucindolol alone (intrinsic sympathomimetic activity) [2, 7]: no stimulation of cAMP; also recorded: no evidence for intrinsic sympathomimetic activity
Change in LVEF @ 12 mos ([3]; Bucindolol Incr subgroup): 7.1 ± 8.8 EFU
Change in LVEF @ 12 mos ([3]; Bucindolol Inter subgroup): 7.3 ± 10.4 EFU
Change in LVEF @ 12 mos ([3]; Bucindolol Redxn subgroup): 8.8 ± 9.2 EFU
decrease in norepinephrine relative to changes in the placebo group ([4]; 3 months): 19%
decrease in norepinephrine relative to changes in the placebo group ([4]; 12 months): 13%
average decrease in norepinephrine at 3 months ([4]; 153 bucindolol subjects at higher mortality risk with norepinephrine reduction): 529 pg/mL
Change in SBP @ 12 mos ([4]; Bucindolol Incr subgroup): −0.9 ± 16.8 mm Hg
HR (heart rate) change @ 12 mos ([4]; Bucindolol Incr subgroup): −8.1 ± 14.6 BPM
Change in LVEF @ 3 mos ([4]; Bucindolol Inter subgroup): 5.7 ± 7.9 EFU
Change in SBP @ 3 mos ([4]; Bucindolol Inter subgroup): −0.5 ± 15.7 mm Hg
Change in SBP @ 12 mos ([4]; Bucindolol Inter subgroup): 0.7 ± 18.0 mm Hg
HR (heart rate) change @ 3 mos ([4]; Bucindolol Inter subgroup): −9.7 ± 12.4 BPM
HR (heart rate) change @ 12 mos ([4]; Bucindolol Inter subgroup): −7.9 ± 13.5 BPM
NE change @ 3 mos, mean ± SD ([4]; n = 551): -44 pg/mL
NE change @ 3 mos, mean ± SD ([4]; n = 551, listed as Bucindolol): -44 ± 103 pg/mL
NE change @ 12 mos, mean ± SD ([4]; Bucindolol Inter subgroup, n = 551): 17.5 ± 216 pg/mL
Change in SBP @ 3 mos ([4]; Bucindolol Redxn subgroup): −0.7 ± 18.2 mm Hg
Change in SBP @ 12 mos ([4]; Bucindolol Redxn subgroup): 2.7 ± 20.1 mm Hg
proportion of bucindolol-treated patients with marked norepinephrine reduction at 3 months ([4]; NE reduction ≧244.5 pg/ml): 18%
average reduction in norepinephrine at 3 months (SEM) ([4]; α2c DEL 322-325 carriers): 153 ± 57 pg/mL
average reduction in norepinephrine at 3 months (SEM) ([4]; α2c WT/WT patients): 50 ± 13 pg/mL
intrinsic sympathomimetic activity (increase in force) ([5]; failing hearts, with and without forskolin): no significant increase in force development; also recorded: no evidence of ISA
inotropic effect on systolic force (dose-response curve slope) ([5]; β1AR Arg/Arg, forskolin pretreatment): inverse agonist; also recorded: negative curve slope
inotropic effect on systolic force (dose-response curve slope) ([5]; β1AR Gly carriers, forskolin pretreatment): neutral antagonist; also recorded: not different from 0
inotropic effect on systolic force (dose-response curve slope) ([5]; β1AR Gly carriers, without forskolin): inverse agonist; also recorded: negative inotropic effect
HF Hospitalization hazard ratio, bucindolol vs placebo ([6]; BEST entire cohort (n = 2708)): 0.78; 1045 Ev
Mortality + HF Hospitalization hazard ratio, bucindolol vs placebo ([6]; BEST entire cohort (n = 2708)): 0.81; 1421 Ev
reduction in all-cause mortality ([6]; BEST entire cohort): 10%
reduction in mortality or heart failure hospitalization ([6]; BEST entire cohort): 19%
reduction in event rate (death or heart failure hospitalization) ([6]; Class III patients, overall): 22%
increase in combined endpoint of death or heart failure hospitalization ([6]; Class IV patients, first 6 months of treatment): 1.7 fold
